Laboratory results reported in ChEMBL document CHEMBL4665730, “Discovery of nonpeptide 3,4-dihydroquinazoline-4-carboxamides as potent and selective sst2 agonists” (Bioorg Med Chem Lett, 2020).
Each block holds one compound with its values, some of them ahead of it.

What was measured:
[1] = target: T1, Somatostatin receptor type 2 (Homo sapiens, UniProt P30874); assay: Agonist activity at human SST2 expressed in CHO-K1 cells assessed as reduction in NKH477-induced intracellular cAMP accumulation; format: functional, cell-based
[2] = Oral bioavailability in Sprague-Dawley rat at 10 mg/kg; format: ADME, organism-based; settings: in vivo
[3] = target: Somatostatin receptor type 2 (Rattus norvegicus, UniProt P30680); assay: Agonist activity at rat SST2
[4] = target: T1, Somatostatin receptor type 2; assay: Agonist activity at SST2 (unknown origin)
[5] = target: Somatostatin receptor type 1 (Homo sapiens, UniProt P30872); assay: Agonist activity at SST1 (unknown origin)
[6] = target: Voltage-gated inwardly rectifying potassium channel KCNH2 (Homo sapiens, UniProt Q12809); assay: Inhibition of human ERG expressed in HEK293 cells; format: cell-based
Cytochrome P450 2D6 = Cytochrome P450 2D6 (Homo sapiens, UniProt P10635); assay: Inhibition of CYP2D6 (unknown origin); format: ADME
Cytochrome P450 2C9 = Cytochrome P450 2C9 (Homo sapiens, UniProt P11712); assay: Inhibition of CYP2C9 (unknown origin); format: ADME
Cytochrome P450 3A4 [7] = target: T2, Cytochrome P450 3A4 (Homo sapiens, UniProt P08684); assay: Inhibition of CYP3A4 (unknown origin) at 10 uM; format: ADME
[8] = target: Somatostatin receptor type 5 (Homo sapiens, UniProt P35346); assay: Agonist activity at SST5 (unknown origin)
[9] = target: Somatostatin receptor type 3 (Homo sapiens, UniProt P32745); assay: Agonist activity at SST3 (unknown origin)
Cytochrome P450 2C19 = Cytochrome P450 2C19 (Homo sapiens, UniProt P33261); assay: Inhibition of CYP2C19 (unknown origin); format: ADME
[10] = target: Somatostatin receptor type 4 (Homo sapiens, UniProt P31391); assay: Agonist activity at SST4 (unknown origin)
Cytochrome P450 3A4 [11] = target: T2, Cytochrome P450 3A4; assay: Inhibition of CYP3A4 (unknown origin); format: ADME

Chain of Voltage-gated inwardly rectifying potassium channel KCNH2 (Q12809 whole entry): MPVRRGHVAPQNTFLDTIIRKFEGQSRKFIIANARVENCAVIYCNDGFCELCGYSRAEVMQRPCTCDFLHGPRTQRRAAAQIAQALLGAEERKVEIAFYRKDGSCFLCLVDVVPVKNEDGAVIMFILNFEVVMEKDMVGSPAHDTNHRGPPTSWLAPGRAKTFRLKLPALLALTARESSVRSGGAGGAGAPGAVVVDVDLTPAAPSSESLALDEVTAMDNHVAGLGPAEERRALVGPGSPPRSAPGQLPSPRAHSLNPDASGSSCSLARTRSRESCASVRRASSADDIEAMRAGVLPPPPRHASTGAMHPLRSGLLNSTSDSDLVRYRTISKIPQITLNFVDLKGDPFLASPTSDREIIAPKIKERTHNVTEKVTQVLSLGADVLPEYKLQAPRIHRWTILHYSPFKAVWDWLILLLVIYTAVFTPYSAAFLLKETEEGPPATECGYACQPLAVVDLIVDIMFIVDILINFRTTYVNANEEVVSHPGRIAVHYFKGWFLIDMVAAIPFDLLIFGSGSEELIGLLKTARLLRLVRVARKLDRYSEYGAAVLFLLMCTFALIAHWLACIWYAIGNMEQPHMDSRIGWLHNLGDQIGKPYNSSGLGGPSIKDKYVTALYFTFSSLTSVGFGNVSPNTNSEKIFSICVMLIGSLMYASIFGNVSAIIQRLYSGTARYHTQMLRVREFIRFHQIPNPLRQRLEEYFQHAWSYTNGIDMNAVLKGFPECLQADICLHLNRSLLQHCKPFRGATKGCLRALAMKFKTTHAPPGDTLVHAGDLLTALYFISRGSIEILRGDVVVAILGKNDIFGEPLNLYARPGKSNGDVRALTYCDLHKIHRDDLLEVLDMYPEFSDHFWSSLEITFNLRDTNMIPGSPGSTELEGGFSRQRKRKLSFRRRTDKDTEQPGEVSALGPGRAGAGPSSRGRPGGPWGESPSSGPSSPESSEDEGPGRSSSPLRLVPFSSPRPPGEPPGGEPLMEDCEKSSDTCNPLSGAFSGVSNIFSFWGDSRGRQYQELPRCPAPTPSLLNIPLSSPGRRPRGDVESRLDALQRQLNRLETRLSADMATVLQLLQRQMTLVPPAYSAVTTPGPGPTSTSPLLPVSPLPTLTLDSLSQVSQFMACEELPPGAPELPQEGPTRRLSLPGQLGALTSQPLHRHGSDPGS
T1 sequence (P30874 whole entry): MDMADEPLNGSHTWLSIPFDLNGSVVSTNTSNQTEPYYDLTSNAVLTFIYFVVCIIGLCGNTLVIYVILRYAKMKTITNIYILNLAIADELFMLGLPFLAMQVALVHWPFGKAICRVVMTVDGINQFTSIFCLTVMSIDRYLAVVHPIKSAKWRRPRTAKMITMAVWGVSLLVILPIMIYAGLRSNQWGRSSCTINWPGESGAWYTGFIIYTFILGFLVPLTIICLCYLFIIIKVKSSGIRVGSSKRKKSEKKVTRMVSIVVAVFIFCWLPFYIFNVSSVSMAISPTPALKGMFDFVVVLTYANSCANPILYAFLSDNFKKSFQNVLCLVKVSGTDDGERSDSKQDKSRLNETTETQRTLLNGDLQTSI
Chain of Somatostatin receptor type 5 (P35346 whole entry): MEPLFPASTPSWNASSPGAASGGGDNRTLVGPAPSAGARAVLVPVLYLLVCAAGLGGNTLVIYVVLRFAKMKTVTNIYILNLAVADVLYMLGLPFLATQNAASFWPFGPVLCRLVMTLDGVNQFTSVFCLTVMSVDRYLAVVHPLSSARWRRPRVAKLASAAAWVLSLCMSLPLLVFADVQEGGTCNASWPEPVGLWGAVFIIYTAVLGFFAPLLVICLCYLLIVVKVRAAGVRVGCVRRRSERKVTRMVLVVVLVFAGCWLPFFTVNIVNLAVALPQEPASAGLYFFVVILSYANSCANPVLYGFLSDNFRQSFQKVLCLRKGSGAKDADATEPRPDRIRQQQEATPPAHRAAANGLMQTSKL
Chain of Somatostatin receptor type 1 (P30872 whole entry): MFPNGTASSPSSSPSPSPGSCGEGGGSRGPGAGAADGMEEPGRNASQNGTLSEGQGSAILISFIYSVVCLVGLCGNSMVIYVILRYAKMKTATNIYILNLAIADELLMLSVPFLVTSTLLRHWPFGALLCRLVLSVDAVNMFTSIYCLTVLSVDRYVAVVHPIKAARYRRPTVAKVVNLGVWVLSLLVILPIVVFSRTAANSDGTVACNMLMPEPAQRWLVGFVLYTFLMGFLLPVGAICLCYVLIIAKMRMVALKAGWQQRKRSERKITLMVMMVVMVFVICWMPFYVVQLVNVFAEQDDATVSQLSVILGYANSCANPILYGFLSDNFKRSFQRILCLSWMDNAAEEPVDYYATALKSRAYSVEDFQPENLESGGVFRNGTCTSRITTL
Chain of Somatostatin receptor type 3 (P32745 whole entry): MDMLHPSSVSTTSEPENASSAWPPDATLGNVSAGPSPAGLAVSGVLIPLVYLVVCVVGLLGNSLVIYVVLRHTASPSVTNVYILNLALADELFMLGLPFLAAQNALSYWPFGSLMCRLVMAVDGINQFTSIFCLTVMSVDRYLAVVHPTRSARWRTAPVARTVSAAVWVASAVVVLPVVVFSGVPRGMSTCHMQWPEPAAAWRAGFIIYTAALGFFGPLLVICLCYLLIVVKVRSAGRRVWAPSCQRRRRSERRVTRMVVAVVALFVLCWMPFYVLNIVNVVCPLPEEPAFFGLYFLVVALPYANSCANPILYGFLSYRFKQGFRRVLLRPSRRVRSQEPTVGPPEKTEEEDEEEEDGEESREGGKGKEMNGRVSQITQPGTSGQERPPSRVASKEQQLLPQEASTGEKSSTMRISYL
Chain of Somatostatin receptor type 4 (P31391 whole entry): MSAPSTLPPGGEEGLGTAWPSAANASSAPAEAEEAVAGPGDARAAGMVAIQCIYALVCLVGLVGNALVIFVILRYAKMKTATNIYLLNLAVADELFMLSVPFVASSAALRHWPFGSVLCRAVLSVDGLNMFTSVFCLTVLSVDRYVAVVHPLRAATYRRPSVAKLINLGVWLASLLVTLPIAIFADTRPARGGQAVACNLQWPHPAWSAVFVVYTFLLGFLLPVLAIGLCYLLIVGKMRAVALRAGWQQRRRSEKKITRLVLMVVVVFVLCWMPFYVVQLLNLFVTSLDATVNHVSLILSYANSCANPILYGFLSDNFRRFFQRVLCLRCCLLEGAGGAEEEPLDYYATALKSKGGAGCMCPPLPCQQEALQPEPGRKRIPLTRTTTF
T2 sequence (P08684 whole entry): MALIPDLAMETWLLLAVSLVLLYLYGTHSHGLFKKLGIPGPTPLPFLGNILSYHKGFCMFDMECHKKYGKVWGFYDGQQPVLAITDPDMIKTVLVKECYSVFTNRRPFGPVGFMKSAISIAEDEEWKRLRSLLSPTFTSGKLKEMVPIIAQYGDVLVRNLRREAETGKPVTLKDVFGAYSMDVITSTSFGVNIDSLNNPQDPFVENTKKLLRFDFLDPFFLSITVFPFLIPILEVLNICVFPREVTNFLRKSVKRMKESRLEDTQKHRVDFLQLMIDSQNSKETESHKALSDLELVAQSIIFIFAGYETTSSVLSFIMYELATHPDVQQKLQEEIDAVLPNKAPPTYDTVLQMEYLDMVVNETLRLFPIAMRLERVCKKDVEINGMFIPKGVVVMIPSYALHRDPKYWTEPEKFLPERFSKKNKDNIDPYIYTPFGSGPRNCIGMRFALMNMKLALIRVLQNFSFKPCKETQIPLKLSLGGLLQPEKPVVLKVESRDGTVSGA
Chain of Cytochrome P450 2D6 (P10635 whole entry): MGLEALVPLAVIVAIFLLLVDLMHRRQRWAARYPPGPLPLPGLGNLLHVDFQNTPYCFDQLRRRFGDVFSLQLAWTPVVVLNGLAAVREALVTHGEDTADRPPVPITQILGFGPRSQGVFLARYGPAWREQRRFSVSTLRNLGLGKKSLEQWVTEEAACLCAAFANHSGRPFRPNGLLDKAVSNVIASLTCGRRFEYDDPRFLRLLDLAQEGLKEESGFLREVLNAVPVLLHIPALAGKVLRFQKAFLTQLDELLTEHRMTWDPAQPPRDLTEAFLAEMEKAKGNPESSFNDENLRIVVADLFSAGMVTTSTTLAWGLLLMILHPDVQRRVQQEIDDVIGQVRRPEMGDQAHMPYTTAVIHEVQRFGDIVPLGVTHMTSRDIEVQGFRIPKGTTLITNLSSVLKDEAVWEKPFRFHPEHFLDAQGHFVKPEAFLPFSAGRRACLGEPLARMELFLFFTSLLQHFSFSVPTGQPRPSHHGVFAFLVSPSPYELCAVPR
Chain of Cytochrome P450 2C9 (P11712 whole entry): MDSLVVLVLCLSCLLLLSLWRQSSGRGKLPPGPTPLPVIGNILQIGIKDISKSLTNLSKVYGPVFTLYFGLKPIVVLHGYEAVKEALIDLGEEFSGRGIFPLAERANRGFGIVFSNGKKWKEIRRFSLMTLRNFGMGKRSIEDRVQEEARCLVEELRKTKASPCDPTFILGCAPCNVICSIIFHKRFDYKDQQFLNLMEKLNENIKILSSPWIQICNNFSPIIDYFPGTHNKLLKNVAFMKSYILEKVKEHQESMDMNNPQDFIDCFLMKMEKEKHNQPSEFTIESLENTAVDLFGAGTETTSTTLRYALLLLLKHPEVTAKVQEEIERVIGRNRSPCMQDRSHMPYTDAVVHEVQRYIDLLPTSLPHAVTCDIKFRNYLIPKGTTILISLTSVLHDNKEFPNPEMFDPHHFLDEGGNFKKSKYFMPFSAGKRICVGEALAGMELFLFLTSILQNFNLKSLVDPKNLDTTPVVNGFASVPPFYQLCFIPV
Chain of Somatostatin receptor type 2 (Rattus norvegicus, UniProt P30680) (P30680 whole entry): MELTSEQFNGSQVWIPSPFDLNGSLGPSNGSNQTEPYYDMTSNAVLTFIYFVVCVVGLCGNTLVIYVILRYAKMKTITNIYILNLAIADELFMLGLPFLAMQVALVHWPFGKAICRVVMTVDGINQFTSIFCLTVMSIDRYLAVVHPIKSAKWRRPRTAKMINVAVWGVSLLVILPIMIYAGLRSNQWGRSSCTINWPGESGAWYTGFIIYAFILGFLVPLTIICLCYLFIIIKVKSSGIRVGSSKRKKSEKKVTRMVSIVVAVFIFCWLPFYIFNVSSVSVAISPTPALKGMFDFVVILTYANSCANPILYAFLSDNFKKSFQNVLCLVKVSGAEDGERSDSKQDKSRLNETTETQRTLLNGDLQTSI

EC50 ([1]; read-out: EC50): 4.2 nM
SMILES: CC[C@H](N)CN(C)C(=O)C1c2cc(-c3cccc(O)c3)c(C)cc2N=CN1c1cc(C)cc(C)c1 (stereo not given in full)

EC50 ([1]; read-out: EC50): 0.33 nM
SMILES: Cc1cc(Cl)cc(N2C=Nc3cc(C)c(-c4cccc(O)c4)cc3C2C(=O)N(C)C[C@@H]2CCCN2)c1 (stereo not given in full)

EC50 ([1]; read-out: EC50): 5.4 nM
SMILES: Cc1cc(Cl)cc(N2C=Nc3cc(C)c(-c4cccc(C#N)c4)cc3C2C(=O)N(C)C[C@@H]2CCCN2)c1 (stereo not given in full)

EC50 ([1]; read-out: EC50): 56 nM
SMILES: Cc1cc(Cl)cc(N2C=Nc3cc(C)c(-c4ccccc4)cc3C2C(=O)N(C)C[C@@H]2CCCN2)c1 (stereo not given in full)

EC50 ([1]; read-out: EC50): 1.3 nM
SMILES: Cc1cc(C)cc(N2C=Nc3cc(C)c(-c4cccc(O)c4)cc3C2C(=O)N(C)C[C@@H]2CCCN2)c1 (stereo not given in full)

EC50 ([1]; read-out: EC50): 170 nM
SMILES: Cc1cc(Cl)cc(N2C=Nc3cc(C)c(-c4cnn(C)c4)cc3C2C(=O)N(C)C[C@@H]2CCCN2)c1 (stereo not given in full)

EC50 ([1]; read-out: EC50): 0.98 nM
SMILES: Cc1cc(F)cc(N2C=Nc3cc(C)c(-c4cccc(O)c4)cc3C2C(=O)N(C)C[C@@H]2CCCN2)c1 (stereo not given in full)

bioavailability [2]: < 5% | EC50 [3]: 0.54 nM
SMILES: Cc1cc(Cl)cc(N2C=Nc3cc(C)c(-c4cccc(F)c4O)cc3C2C(=O)N(C)CC2CCCN2)c1 (stereo not given)

EC50 ([1]; read-out: EC50): 39 nM
SMILES: Cc1cc(Cl)cc(N2C=Nc3cc(C)c(-c4cccc(Cl)c4)cc3C2C(=O)N(C)C[C@@H]2CCCN2)c1 (stereo not given in full)

EC50 ([1]; read-out: EC50): 53 nM
SMILES: Cc1cc(Cl)cc(N2C=Nc3cc(C)c(-c4cccc(C(F)(F)F)c4)cc3C2C(=O)N(C)C[C@@H]2CCCN2)c1 (stereo not given in full)

EC50 ([1]; cho-k1, read-out: EC50): > 1000 nM | EC50 ([1]; read-out: pEC50 (converted)): > 1000 nM
SMILES: Cc1cc(Cl)cc(N2C=Nc3cc(C)c(-c4cccc(-c5nnn[nH]5)c4)cc3C2C(=O)N(C)C[C@@H]2CCCN2)c1 (stereo not given in full)

EC50 [4]: 0.2 nM | EC50 [5]: > 1000 nM | EC50 ([1]; read-out: EC50): 0.2 nM
SMILES: Cc1cc(Cl)cc(N2C=Nc3cc(C)c(-c4cc(O)ccc4F)cc3C2C(=O)N(C)C[C@@H]2CCCN2)c1 (stereo not given in full)
IC50 ([6]; read-out: IC50): < 1000 nM | IC50 ([6]; read-out: pIC50 (converted)): 501 nM

EC50 [5]: > 1000 nM | inhibition (INH) (Cytochrome P450 2D6): Not Active | inhibition (INH) (Cytochrome P450 2C9): Not Active | inhibition (INH) (Cytochrome P450 3A4 [7]): Active | EC50 [8]: > 1000 nM | EC50 [9]: 158 nM | inhibition (INH) (Cytochrome P450 2C19): Not Active
SMILES: Cc1cc(Cl)cc(N2C=Nc3cc(C)c(-c4cccc(F)c4O)cc3C2C(=O)N(C)C[C@@H]2CCCN2)c1 (stereo not given in full)
IC50 ([6]; read-out: pIC50 (converted)): 5010 nM

EC50 ([1]; cho-k1, read-out: EC50): > 1000 nM | EC50 ([1]; read-out: pEC50 (converted)): > 1000 nM
SMILES: Cc1cc(C)cc(N2C=Nc3cc(Cl)c(-c4cccc(O)c4)cc3C2C(=O)NC[C@H](C)N)c1 (stereo not given in full)

EC50 ([1]; read-out: EC50): 6.1 nM
SMILES: COc1cc(F)cc(-c2cc3c(cc2C)N=CN(c2cc(C)cc(Cl)c2)C3C(=O)N(C)C[C@@H]2CCCN2)c1 (stereo not given in full)

EC50 ([1]; read-out: EC50): 0.36 nM
SMILES: Cc1cc(Cl)cc(N2C=Nc3cc(C)c(-c4cc(O)cc(C#N)c4)cc3C2C(=O)N(C)C[C@@H]2CCCN2)c1 (stereo not given in full)

EC50 ([1]; read-out: EC50): 130 nM
SMILES: Cc1cc(Cl)cc(N2C=Nc3cc(C)c(-c4cccc(NS(C)(=O)=O)c4)cc3C2C(=O)N(C)C[C@@H]2CCCN2)c1 (stereo not given in full)

EC50 [4]: 1.26 nM | EC50 [5]: > 1000 nM | EC50 [9]: 3.98 nM | EC50 [10]: 631 nM | EC50 ([1]; read-out: EC50): 1.3 nM
SMILES: Cc1cc(Cl)cc(N2C=Nc3cc(C)c(-c4cc(F)cc(C#N)c4)cc3C2C(=O)N(C)C[C@@H]2CCCN2)c1 (stereo not given in full)

EC50 ([1]; read-out: EC50): 3.7 nM
SMILES: Cc1cc(Cl)cc(N2C=Nc3cc(C)c(-c4cc(F)cc(F)c4)cc3C2C(=O)N(C)C[C@@H]2CCCN2)c1 (stereo not given in full)

EC50 ([1]; read-out: EC50): 8.1 nM
SMILES: Cc1cc(Cl)cc(N2C=Nc3cc(C)c(-c4cncc(O)c4)cc3C2C(=O)N(C)C[C@@H]2CCCN2)c1 (stereo not given in full)

EC50 ([1]; read-out: EC50): 4.6 nM
SMILES: Cc1cc(Cl)cc(N2C=Nc3cc(C)c(-c4ccc5[nH]c(=O)[nH]c5c4)cc3C2C(=O)N(C)C[C@@H]2CCCN2)c1 (stereo not given in full)

IC50 (Cytochrome P450 3A4 [11]): 1000 nM | EC50 [4]: 0.158 nM | EC50 [5]: > 1000 nM | EC50 [8]: > 1000 nM | EC50 [9]: 7.94 nM | EC50 [10]: > 1000 nM | EC50 ([1]; read-out: EC50): 0.15 nM
SMILES: Cc1cc(Cl)cc(N2C=Nc3cc(C)c(-c4cc(F)cc(C(N)=O)c4)cc3C2C(=O)N(C)C[C@@H]2CCCN2)c1 (stereo not given in full)
IC50 ([6]; read-out: pIC50 (converted)): 2510 nM

EC50 [4]: 0.126 nM | EC50 [5]: > 1000 nM | EC50 [8]: > 1000 nM | EC50 [9]: 7.94 nM | EC50 [10]: 251 nM | EC50 ([1]; read-out: EC50): 0.12 nM
SMILES: Cc1cc(Cl)cc(N2C=Nc3cc(C)c(-c4cc(O)cc(F)c4)cc3C2C(=O)N(C)C[C@@H]2CCCN2)c1 (stereo not given in full)
IC50 ([6]; read-out: IC50): < 1000 nM | IC50 ([6]; read-out: pIC50 (converted)): 631 nM

EC50 ([1]; read-out: EC50): 11 nM
SMILES: CC[C@H](N)CN(C)C(=O)C1c2cc(-c3cccc(O)c3)c(Cl)cc2N=CN1c1cc(C)cc(C)c1 (stereo not given in full)

EC50 ([1]; cho-k1, read-out: EC50): > 1000 nM | EC50 ([1]; read-out: pEC50 (converted)): > 1000 nM
SMILES: Cc1cc(C)cc(N2C=Nc3ccc(-c4cccc(O)c4)cc3C2C(=O)N(C)C[C@H](C)N)c1 (stereo not given in full)

EC50 ([1]; read-out: EC50): 2.1 nM
SMILES: Cc1cc(Cl)cc(N2C=Nc3cc(C)c(-c4cc(F)ccc4O)cc3C2C(=O)N(C)C[C@@H]2CCCN2)c1 (stereo not given in full)

EC50 ([1]; read-out: EC50): 11 nM
SMILES: Cc1cc(Cl)cc(N2C=Nc3cc(C)c(-c4cncc(C#N)c4)cc3C2C(=O)N(C)C[C@@H]2CCCN2)c1 (stereo not given in full)
